Data on five compounds can be found in patent US12187773B2, “Modified GIP peptide analogues” (Antag Therapeutics ApS, priority 2018, dated 2025).

Holding throughout (format): cell-based
The target of assay [1] is T1, human GIP receptor (Homo sapiens, UniProt P48546).
T1 sequence (P48546 22-466): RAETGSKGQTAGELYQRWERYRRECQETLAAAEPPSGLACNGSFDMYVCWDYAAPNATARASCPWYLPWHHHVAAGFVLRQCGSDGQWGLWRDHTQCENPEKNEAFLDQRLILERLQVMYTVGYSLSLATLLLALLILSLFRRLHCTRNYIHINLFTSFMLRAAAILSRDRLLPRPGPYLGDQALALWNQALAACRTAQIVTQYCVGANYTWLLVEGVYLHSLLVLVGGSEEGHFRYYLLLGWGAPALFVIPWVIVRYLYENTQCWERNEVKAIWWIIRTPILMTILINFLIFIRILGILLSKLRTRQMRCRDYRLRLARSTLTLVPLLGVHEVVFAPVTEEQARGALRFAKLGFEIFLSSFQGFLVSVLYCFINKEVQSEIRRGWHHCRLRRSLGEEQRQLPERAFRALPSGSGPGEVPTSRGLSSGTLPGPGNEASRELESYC
The experiment in a line: cAMP agonism (CisBio cAMP Dynamic 2 HTRF assay). The method, then: To test for agonistic properties at the GIP receptor, compounds were diluted and added to cells as described above and incubated for 30 min at 37° C. The resulting increase in intracellular cAMP was determined using the CisBio cAMP Dynamic 2 HTRF Assay Kit as described above.
In general terms: Time-resolved FRET reads energy transfer from a long-lived donor to a nearby acceptor.

The target in assay [2] is T1, human GIP receptor. The experiment in a line: cAMP antagonism (CisBio cAMP Dynamic 2 HTRF assay). The note with it: Table 1C, CisBio, HEK-293 cells. Set-up: pCMV-Script vector. How it is done: The in vitro functional activity of compounds towards human GIP receptor can also be determined in HEK-293 cells transiently expressing the receptor. On the day of the assay, cells were resuspended in HBSS buffer (Gibco, 14025-50) supplemented with 20 mM HEPES (Gibco, 15630-106), 0,1% Pluronic F-68 (Gibco, 24040-032) and 0,1% casein (Sigma, C4765), and plated in 384-well plates at a density of 5000 cells/well. The GIP peptide analogues of the present disclosure were diluted in HBSS buffer supplemented with 20 mM HEPES, 0,1% pluronic, 0,1% casein and 500 uM IBMX. […] The resulting decrease in intracellular cAMP was quantitatively determined using the CisBio cAMP Dynamic 2 HTRF Assay Kit. The assay is based on a competition between native cAMP produced by cells and cAMP labeled with the dye d2 for binding to a cryptate labeled antibody. The specific signal (i.e. energy transfer signal) is inversely proportional to the concentration of cAMP in the sample.
The cAMP-d2 conjugate and the antibody anti-cAMP-Cryptate, both diluted in lysis buffer provided in the kit, were added to the cells according to the manufacturer's protocol. The resulting competitive assay was incubated for 60 minutes at room temperature, and the signal was detected by using a PerkinElmer Envision® instrument with excitation at 320 nm and emission at 665 nm and 620 nm. The HTRF ratio (emission at 665 nm/620 nm*10,000) is inversely proportional to the amount of cAMP present and is converted to nM cAMP per well using a cAMP standard curve. The dose-response curves were fitted using the non-linear regression analysis (four-logistic parameter equation) in GraphPad Prism, whereby pIC50 values were estimated.

In assay [3] the target is T1, human GIP receptor. The assay is described as follows: cAMP accumulation, agonism (DiscoveRx HitHunter cAMP XS assay). On the set-up: host or cells: COS-7 (transient, calcium phosphate; pCMV-Script vector). How it is done: Transient transfected COS-7 cells expressing the human GIP receptor were seeded in white 96-well plates with a density of 3.5*10^4/well. The day after, the cells were washed twice with Hepes buffered saline (HBS) buffer and incubated with HBS and 1 mM 3-isobutyl-1-methylxanthine (IBMX) for 30 min at 37° C. To test for agonistic properties, ligands were added and incubated for 30 min at 37° C. In order to test for antagonistic properties, the cells were preincubated with the antagonists for 10 min prior to the addition of the agonist and subsequent incubated for 20 additional min. The HitHunter™ cAMP XS assay (DiscoveRx) was carried out according to the manufacturer's instructions.
In order to develop a GIP receptor antagonist with improved antagonistic properties, individual amino acid substitutions were conducted on GIP(3-30)NH2 and in particular at positions: 16, 18, 30 or 3, 16, 18, 30. The obtained peptides were lipidated at position 18 directly or via a linker. Both the agonistic and antagonistic profiles of the compounds were tested in cAMP accumulation experiments done in transiently transfected COS-7 cells expressing the human GIP receptor. To investigate if these mutated analogues still retained their antagonistic properties, their ability to inhibit a GIP-mediated cAMP response corresponding to 50-80% of maximum activation was examined.
(In general: Cyclic AMP is a second messenger, typically raised through Gs and lowered through Gi signalling.)

[4] abbreviates: HEK293, read-out: cAMP agonism, % Efficacy, Table 1C, HEK-293 cells.
[5] abbreviates: COS-7, read-out: cAMP agonism, Emax.
[6] abbreviates: HEK293, Table 1C, HEK-293 cells, read-out: cAMP agonism, % Efficacy.
[7] abbreviates: Table 1B, DiscoveRx, COS-7 cells, read-out: cAMP agonism, Emax.

Where a SMILES comes first, the peptide text is derived from it. The star is where a group is joined. C16 diacid = O=C(O)CCCCCCCCCCCCCCC(=O)*

As a reminder, the IC50 is the point on the concentration scale where inhibition reaches its midpoint.

Regarding `CC[C@H](C)[C@H](NC(=O)[C@H](CO)NC(=O)[C@H](Cc1ccc(O)cc1)NC(=O)[C@H](CC(=O)O)NC(=O)[C@H](CO)NC(=O)[C@@H](NC(=O)[C@H](Cc1ccccc1)NC(=O)[C@@H](N)[C@@H](C)O)[C@@H](C)CC)C(=O)N[C@@H](C)C(=O)N[C@@H](CC(C)C)C(=O)N[C@@H](CC(=O)O)C(=O)N[C@@H](CCCNC(=N)N)C(=O)N[C@H](C(=O)N[C@@H](CCCCNC(=O)CC[C@H](NC(=O)CCCCCCCCCCCCCCC(=O)O)C(=O)O)C(=O)N[C@@H](CCC(N)=O)C(=O)N[C@@H](CCC(N)=O)C(=O)N[C@@H](CC(=O)O)C(=O)N[C@@H](Cc1ccccc1)C(=O)N[C@H](C(=O)N[C@@H](CC(N)=O)C(=O)N[C@@H](Cc1c[nH]c2ccccc12)C(=O)N[C@@H](CC(C)C)C(=O)N[C@@H](CC(C)C)C(=O)N[C@@H](C)C(=O)N[C@@H](CCC(N)=O)C(=O)N[C@@H](CCCNC(=N)N)C(N)=O)C(C)C)[C@@H](C)CC` [AT233] (HELM PEPTIDE1{T.F.I.S.D.Y.S.I.A.L.D.R.I.K.Q.Q.D.F.V.N.W.L.L.A.Q.R.[am]}|PEPTIDE2{[O=C(O)CCCCCCCCCCCCCCC(=O)[*:2]].[gGlu]}$PEPTIDE1,PEPTIDE2,14:R3-2:R2$$$V2.0; N-terminus assumed), the Emax came out at 0% at human GIP receptor [1] (setting [4]) and 28% on human GIP receptor [3] (setting [5]). The “cAMP antagonism, % inhib” value on human GIP receptor [2] worked out at 70%. Moreover, the IC50 at human GIP receptor [2] (cAMP antagonism, nM (IC50), agonist GIP1-42 at EC50) is 34.2 nM.

`CC[C@H](C)[C@H](NC(=O)[C@H](CO)NC(=O)[C@H](Cc1ccc(O)cc1)NC(=O)[C@H](CC(=O)O)NC(=O)[C@H](CO)NC(=O)[C@@H](NC(=O)[C@H](Cc1ccccc1)NC(=O)[C@@H](NC(=O)CNC(=O)[C@@H]1CCCN1)[C@@H](C)O)[C@@H](C)CC)C(=O)N[C@@H](C)C(=O)N[C@@H](CCSC)C(=O)N[C@@H](CC(=O)O)C(=O)N[C@@H](CCCNC(=N)N)C(=O)N[C@H](C(=O)N[C@@H](CCCCNC(=O)COCCOCCNC(=O)CC[C@H](NC(=O)CCCCCCCCCCCCCCC(=O)O)C(=O)O)C(=O)N[C@@H](CCC(N)=O)C(=O)N[C@@H](CCC(N)=O)C(=O)N[C@@H](CC(=O)O)C(=O)N[C@@H](Cc1ccccc1)C(=O)N[C@H](C(=O)N[C@@H](CC(N)=O)C(=O)N[C@@H](Cc1c[nH]c2ccccc12)C(=O)N[C@@H](CC(C)C)C(=O)N[C@@H](CC(C)C)C(=O)N[C@@H](C)C(=O)N[C@@H](CCC(N)=O)C(=O)N[C@@H](CCCNC(=N)N)C(=O)O)C(C)C)[C@@H](C)CC` [AT273] (HELM PEPTIDE1{P.G.T.F.I.S.D.Y.S.I.A.M.D.R.I.K.Q.Q.D.F.V.N.W.L.L.A.Q.R}|PEPTIDE2{[O=C(O)CCCCCCCCCCCCCCC(=O)[*:2]].[gGlu].[O=C(COCCOCCN[*:1])[*:2]]}$PEPTIDE1,PEPTIDE2,16:R3-3:R2$$$V2.0; N-terminus assumed): the Emax is 0% at human GIP receptor [1] (setting [4]) and 35% at human GIP receptor [3] (setting [5]).

Turning to `CC[C@H](C)[C@H](NC(=O)[C@H](CO)NC(=O)[C@H](Cc1ccc(O)cc1)NC(=O)[C@H](CC(=O)O)NC(=O)[C@H](CO)NC(=O)[C@@H](NC(=O)[C@H](Cc1ccccc1)NC(=O)[C@@H](NC(=O)CNC(=O)[C@@H](N)CCC(=O)O)[C@@H](C)O)[C@@H](C)CC)C(=O)N[C@@H](C)C(=O)N[C@@H](CCSC)C(=O)N[C@@H](CC(=O)O)C(=O)N[C@@H](CCCCN)C(=O)N[C@H](C(=O)N[C@@H](CCCCNC(=O)CCCCCCCCCCCCCCC(=O)O)C(=O)N[C@@H](CCC(N)=O)C(=O)N[C@@H](CCC(N)=O)C(=O)N[C@@H](CC(=O)O)C(=O)N[C@@H](Cc1ccccc1)C(=O)N[C@H](C(=O)N[C@@H](CC(N)=O)C(=O)N[C@@H](Cc1c[nH]c2ccccc12)C(=O)N[C@@H](CC(C)C)C(=O)N[C@@H](CC(C)C)C(=O)N[C@@H](C)C(=O)N[C@@H](CCC(N)=O)C(=O)N[C@@H](CCC(=O)O)C(N)=O)C(C)C)[C@@H](C)CC` [AT477] (H-EGTFISDYSIAMDKIK(C16 diacid)QQDFVNWLLAQE-NH2; N-terminus assumed), the Emax at human GIP receptor [1] (setting [4]) turned out to be 0%. Further, the “cAMP agonism, Emax” value at human GIP receptor [3] (Table 1B, DiscoveRx, COS-7 cells) is recorded as “No Agonism”.

In the case of `CC[C@H](C)[C@H](NC(=O)[C@H](CO)NC(=O)[C@H](Cc1ccc(O)cc1)NC(=O)[C@H](CCC(=O)O)NC(=O)[C@H](CO)NC(=O)[C@@H](NC(=O)[C@H](Cc1ccccc1)NC(=O)[C@@H](NC(=O)CNC(=O)[C@@H](N)CCC(=O)O)[C@@H](C)O)[C@@H](C)CC)C(=O)N[C@@H](C)C(=O)N[C@@H](CCSC)C(=O)N[C@@H](CCC(=O)O)C(=O)N[C@@H](CCCCN)C(=O)N[C@H](C(=O)N[C@@H](CCCCNC(=O)CCCCCCCCCCCCCCC(=O)O)C(=O)N[C@@H](CCC(N)=O)C(=O)N[C@@H](CCC(N)=O)C(=O)N[C@@H](CCC(=O)O)C(=O)N[C@@H](Cc1ccccc1)C(=O)N[C@H](C(=O)N[C@@H](CCC(N)=O)C(=O)N[C@@H](Cc1c[nH]c2ccccc12)C(=O)N[C@@H](CC(C)C)C(=O)N[C@@H](CC(C)C)C(=O)N[C@@H](C)C(=O)N[C@@H](CCC(N)=O)C(=O)N[C@@H](CCCCN)C(N)=O)C(C)C)[C@@H](C)CC` [AT482] (H-EGTFISEYSIAMEKIK(C16 diacid)QQEFVQWLLAQK-NH2; N-terminus assumed), the Emax amounted to 0% on human GIP receptor [1] (setting [6]) and 10% at human GIP receptor [3] (setting [7]).

With `CC[C@H](C)[C@H](NC(=O)[C@H](Cc1ccccc1)NC(=O)[C@H](C)NC(=O)CNC(=O)[C@@H](N)CCC(=O)O)C(=O)N[C@@H](CO)C(=O)N[C@@H](CC(=O)O)C(=O)N[C@@H](Cc1ccc(O)cc1)C(=O)N[C@@H](C)C(=O)N[C@@H](C)C(=O)N[C@@H](C)C(=O)N[C@@H](CCSC)C(=O)N[C@@H](CC(=O)O)C(=O)N[C@@H](CCCCN)C(=O)N[C@H](C(=O)N[C@@H](CCCCNC(=O)CCCCCCCCCCCCCCC(=O)O)C(=O)N[C@@H](CCC(N)=O)C(=O)N[C@@H](CCC(N)=O)C(=O)N[C@@H](CC(=O)O)C(=O)N[C@@H](Cc1ccccc1)C(=O)N[C@H](C(=O)N[C@@H](C)C(=O)N[C@@H](Cc1c[nH]c2ccccc12)C(=O)N[C@@H](CC(C)C)C(=O)N[C@@H](CC(C)C)C(=O)N[C@@H](C)C(=O)N[C@@H](CCC(N)=O)C(=O)N[C@@H](CCCCN)C(N)=O)C(C)C)[C@@H](C)CC` [AT483] (H-EGAFISDYAAAMDKIK(C16 diacid)QQDFVAWLLAQK-NH2; N-terminus assumed), the figures for the Emax on human GIP receptor [1] (setting [6]) and at human GIP receptor [3] (setting [7]) were 0% and 8%, respectively.
